Test results taken from PMC2575047 (Molecular pharmacology, 2008).
Where two headings read alike, the source gives them in different places.

Columns and labels:
[1] = biological target: human wild-type S1P1 (WT) (Homo sapiens, UniProt P21453); type: cell-based
[2] = system: blood lymphocytes (WBC, B220+, CD4+, CD8+); assay: CYM-5442 mediated lymphopenia in mice; type: in vivo, C57BL6 mice; conditions: for B220^+ cells, percent relative to animals receiving both drug vehicles / CD4^+ cells, percent relative to animals receiving both drug vehicles / CD8^+ cells, percent relative to animals receiving both drug vehicles: W146 20 mg/kg i.p. 30 min before, CYM-5442 2 mg/kg
[3] = Serum drug concentration in the lymphopenia studies; type: in vivo, C57BL6 mice; conditions: mice; for serum drug concentration (± SD): W146 20 mg/kg + CYM-5442 2 mg/kg group, 5 h
human S1P1-GFP [4] = biological target: T1, human S1P1-GFP (Homo sapiens, UniProt P21453); assay: S1P1-GFP phosphorylation, P^32-orthophosphate labeled HEK293 cells; type: cell-based
T1 sequence (P21453 whole entry): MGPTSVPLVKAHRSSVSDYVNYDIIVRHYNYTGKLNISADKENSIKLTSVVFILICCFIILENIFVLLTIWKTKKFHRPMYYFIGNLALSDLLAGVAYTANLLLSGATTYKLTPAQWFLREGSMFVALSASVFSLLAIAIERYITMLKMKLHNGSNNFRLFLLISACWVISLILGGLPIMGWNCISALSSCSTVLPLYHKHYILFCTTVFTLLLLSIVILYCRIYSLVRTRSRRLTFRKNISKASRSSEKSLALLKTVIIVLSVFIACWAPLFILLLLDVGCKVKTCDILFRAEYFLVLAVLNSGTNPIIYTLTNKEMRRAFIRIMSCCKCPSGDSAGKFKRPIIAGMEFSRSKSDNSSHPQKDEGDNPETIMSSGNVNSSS

human S1P1-GFP [5] = biological target: T1, human S1P1-GFP; assay: S1P1-GFP internalization in HEK293 cells; type: cell-based
human S1P1-GFP [6] = biological target: T1, human S1P1-GFP; assay: S1P1-GFP ubiquitination in HEK293 cells; type: cell-based
human S1P1 = human S1P1 (Homo sapiens, UniProt P21453); type: cell-based
Sequence of human S1P1 (P21453 whole entry): as above

human S1P5 = human S1P5 (Homo sapiens, UniProt Q9H228); assay: S1P5 agonist format, TANGO S1P5-bla U2OS cells; type: cell-based
Sequence of human S1P5 (Q9H228 whole entry): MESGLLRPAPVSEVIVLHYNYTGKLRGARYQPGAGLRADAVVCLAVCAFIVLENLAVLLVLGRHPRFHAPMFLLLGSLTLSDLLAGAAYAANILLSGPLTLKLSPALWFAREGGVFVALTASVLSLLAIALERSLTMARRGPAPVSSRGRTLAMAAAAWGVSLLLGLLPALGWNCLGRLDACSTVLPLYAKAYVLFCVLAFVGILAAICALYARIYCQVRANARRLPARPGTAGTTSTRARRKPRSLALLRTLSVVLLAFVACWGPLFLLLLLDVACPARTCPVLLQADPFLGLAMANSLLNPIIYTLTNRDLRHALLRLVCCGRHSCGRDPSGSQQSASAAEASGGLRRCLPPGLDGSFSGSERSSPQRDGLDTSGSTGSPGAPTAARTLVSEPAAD

S1P1 R^120A mutant = S1P1 R^120A mutant (Homo sapiens, UniProt P21453, R120A); type: cell-based; conditions: for Emax: CHO-K1; for EC50: without W146
Sequence of S1P1 R^120A mutant (P21453 whole entry R120A): as the sequence (P21453 whole entry) above, with R120A counted along it

S1P1 E^121A mutant = S1P1 E^121A mutant (Homo sapiens, UniProt P21453, E121A); type: cell-based; conditions: for EC50: without W146
Sequence of S1P1 E^121A mutant (P21453 whole entry E121A): as the sequence (P21453 whole entry) above, with E121A counted along it

[7] = Pharmacokinetics in Sprague Dawley rats; type: in vivo; conditions: rat
[8] = Brain exposure in C57Bl6 mice; type: in vivo; conditions: C57Bl6, mouse, ip, 10 mg/kg
Water solubility = type: physicochemical
[9] = EC50, activation of p42/p44 MAPK phosphorylation, WT, without W146
[10] = Sprague Dawley, plasma, iv, 1 mg/kg
[11] = Sprague Dawley, plasma, po, 2 mg/kg

Sequence of human wild-type S1P1 (WT) (P21453 whole entry): as the sequence (P21453 whole entry) above

N#CC(=C(/N)Sc1ccccc1N)/C(C#N)=C(/N)Sc1ccccc1N [U0126]
block of S1P and CYM-5442 stimulated P42/P44 MAPK phosphorylation ([1]; 10 μM pre-incubation): completely blocked

CCCCCCc1cccc(NC(=O)[C@H](N)CCP(=O)(O)O)c1 [W146, (R)-3-Amino-(3-hexylphenylamino)-4-oxobutylphosphonic acid, reference compound]
inhibition of CYM-5442-mediated p42/p44 MAPK phosphorylation ([1]; WT cells, 10 μM W146 preincubation): complete inhibition
reversal of CYM-5442 effects on B-220^+, CD4^+ and CD8^+ cell counts ([2]; W146 20 mg/kg 30 min before CYM-5442 2 mg/kg): partially recover
B220^+ cells, percent relative to animals receiving both drug vehicles ([2]; mice, 5 h): 114.7±5.9%
CD4^+ cells, percent relative to animals receiving both drug vehicles ([2]; mice, 5 h): 108.1 ±17.4%
CD8^+ cells, percent relative to animals receiving both drug vehicles ([2]; mice, 5 h): 112.2±19.6%
serum drug concentration (± SD) [3]: 1760 ± 310 nM
effect of antagonist alone on S1P1 phosphorylation (human S1P1-GFP [4]; 10 μM): no effect
effect on CYM-5442-mediated S1P1 phosphorylation (human S1P1-GFP [4]; 10 μM, 30 min pre-incubation): completely abolished
effect of antagonist alone on internalization (human S1P1-GFP [5]): did not have an effect on internalization
effect on internalization of S1P1-GFP by CYM-5442 (human S1P1-GFP [5]; 10 μM preincubation): completely blocked
effect on CYM-5442-stimulated S1P1 ubiquitination (human S1P1-GFP [6]; pre-incubation 30 min): nearly abolish

CCOc1ccc(-c2nc(-c3cccc4c3CCC4NCCO)no2)cc1OCC (centres unmarked) [CYM-5442, 2-(4-(5-(3,4-diethoxyphenyl)-1,2,4-oxadiazol-3-yl)-2,3-dihydro-1H-inden-1-ylamino) ethanol]
EC50 (human S1P1): 1.35 nM
agonist efficacy compared to SEW2871 (human S1P1; CRE reporter, agonist format): full agonist compared to SEW2871
more potent than SEW2871 in vitro (human S1P1; depending on which agonist format was used): 10-50 fold
Emax (human S1P1; read-out: Agonist format (Emax)): 100%
selectivity for S1P1 over S1P5 (human S1P5): 10,000 fold
Emax (human S1P5; U2OS, read-out: Agonist format (Emax)): 20%
Emax ([1]; CHO-K1): 70%
EC50 [1, 9]: 46 nM
Emax (S1P1 R^120A mutant): 100%
EC50 (S1P1 R^120A mutant; EC50, p42/p44 MAPK activity, R^120A): 67 nM
EC50 (S1P1 R^120A mutant; LogEC50, R^120A, log EC50 printed negative): 63.1 nM
rightward shift in EC50 by 10 μM W146 (S1P1 R^120A mutant; R^120A): 3 fold
Emax (S1P1 E^121A mutant; CHO-K1): 100%
rightward shift in potency by W146 preincubation (S1P1 E^121A mutant; E^121A): 10 fold
EC50 (S1P1 E^121A mutant; LogEC50, E^121A, log EC50 printed negative): 126 nM
EC50 (S1P1 E^121A mutant; mean EC50, activation of p42/p44 MAPK, E^121A): 134 nM
AUC [7, 10]: 0.57 ± 0.1 µM·h
Cmax [7, 10]: 220 ± 18 nM
MRT [7, 10]: 3.54 ± 0.38 h
Tmax [7, 10]: 0.083 h
clearance [7, 10]: 72.9 ± 11.7 mL/min/kg
half-life ([7]; Sprague Dawley, plasma, iv, 1 mg/kg, half-life (t1/2)): 0.833 h
half-life ([7]; Sprague Dawley, plasma, iv, 1 mg/kg, t1/2, rat, 1 mg/kg i.v.): 3.05 ± 0.37 h
bioavailability ([7]; Sprague Dawley, plasma, oral, 2 mg/kg): 20.5 ± 4.67%
AUC [7, 11]: 0.23 ± 0.053 µM·h
Cmax [7, 11]: 36 ± 7.2 nM
MRT [7, 11]: 6.35 ± 2.1 h
Tmax [7, 11]: 1.17 ± 0.76 h
half-life ([7]; Sprague Dawley, plasma, po, 2 mg/kg, half-life (t1/2), P.O.): 3 h
half-life ([7]; Sprague Dawley, plasma, po, 2 mg/kg, t1/2, rat, 2 mg/kg PO): 4 ± 1.45 h
AUC (% extrap,ob) ([7]; 1 mg/kg i.v.): 11.35 ± 14.20%
AUC (% extrap,ob) ([7]; 2 mg/kg PO): 27.80 ± 14.20%
Cl ([7]; 2 mg/kg PO): 360.1 ± 73.3 mL/min/kg
concentration at 2 h ([8]; brain): 13700 ± 2900 nM
concentration at 2 h ([8]; plasma): 1080 ± 300 nM
decrease of B-lymphocytes, of vehicle ([2]; abstract): 65%
decrease of T-lymphocytes, of vehicle ([2]; abstract): 85%
reduction of CD4^+, CD8^+ and B220^+ cell counts, of vehicle ([2]; mice, 2 mg/kg, 5 h): approximately 50%
decrease of B220^+ B-cells compared to vehicle ([2]; mice, 10 mg/kg i.p., 5 h): 63%
decrease of CD4^+ T-cell counts, of vehicle ([2]; mice, 10 mg/kg i.p., 5 h): 83%
decrease of CD8^+ T-cell counts, of vehicle ([2]; mice, 10 mg/kg i.p., 5 h): 84%
decrease of WBC counts vs. vehicle ([2]; mice, 10 mg/kg i.p., 5 h): 64%
% CD4^+ ([2]; mice, 10 mg/kg i.p., 5 h, vehicle 11.5±0.2): 1.9±0.2 %
WBC (K/mm^3) ([2]; mice, 10 mg/kg i.p., 5 h, vehicle 11.9±0.2): 4.3±0.4 K/mm^3
% CD8^+ ([2]; mice, 10 mg/kg i.p., 5 h, vehicle 11.9±0.3): 1.9±0.4 %
% B220^+ ([2]; mice, 10 mg/kg i.p., 5 h, vehicle 40.5±0.6): 14.7±0.5 %
B220^+ cells, percent relative to animals receiving both drug vehicles ([2]; mice, 5 h): 46.0±18.1 %
CD4^+ cells, percent relative to animals receiving both drug vehicles ([2]; mice, 5 h): 53.5 ± 6.5 %
CD8^+ cells, percent relative to animals receiving both drug vehicles ([2]; mice, 5 h): 47.4±7.5 %
serum drug concentration (± SD) [3]: 190 ± 40 nM
serum CYM-5442 concentration required for induction and maintenance of lymphopenia ([3]; i.p.): ~50 nM
S1P1 phosphorylation (human S1P1-GFP [4]; 500 nM): stimulated S1P1 phosphorylation in a time-dependent manner
S1P1-GFP internalization (human S1P1-GFP [5]; 500 nM): stimulated the internalization of S1P1-GFP receptor
S1P1-GFP receptor ubiquitination (human S1P1-GFP [6]; 1 h incubation): stimulated receptor ubiquitination (UB-S1P1-GFP) to AFD-R levels
water solubility (Water solubility): moderately water-soluble

CCCCCCCCCCCCC/C=C/[C@@H](O)[C@@H](N)COP(=O)(O)O [S1P, Sphingosine-1 phosphate]
EC50 ([1]; EC50, activation of p42/p44 MAPK phosphorylation, WT, 10 μM W146 prior to agonist): 140 nM
EC50 [1, 9]: 2.3 nM
EC50 ([1]; LogEC50, WT, without W146, log EC50 printed negative, 5 min stimulation): 2.51 nM
rightward shift in potency by 10 μM W146 ([1]; WT, agonist with W146 vs agonist alone): 60 fold
Emax (S1P1 R^120A mutant): 25%
p42/p44 MAPK activity in the mutant (S1P1 R^120A mutant; R^120A): near loss of p42/p44 MAPK activity
p42/p44 MAPK activation in the mutant (S1P1 E^121A mutant; E^121A): did not lead to significant p42/p44 MAPK activation
